For assay [1], the system named is Huh-7. Kind of assay: Cytotoxicity against human HuH7 cells assessed as reduction in cell viability measured after 48 hrs by MTT assay. In kind it is functional, cell-based. To be noted: Huh-7, 48 h. Background: Tetrazolium assays rely on reduction of a dye to a coloured formazan, in cell work by metabolically active cells.
For assay [2], the system named is HepG2. Briefly: Cytotoxicity against human HepG2 cells assessed as reduction in cell viability measured after 24 hrs by MTT assay. To be noted: HepG2, 24 h. In kind it is functional, cell-based.
The target in assay [3] is Exportin-1 (Homo sapiens) (UniProt O14980). Briefly: Inhibition of CRM1 in human HuH7 cells assessed as accumulation of RIOK2 in nucleus at 1 and 10 uM measured after 24 hrs by DAPI staining based confocal microscopy analysis. In kind it is cell-based.
Chain of Exportin-1 (Homo sapiens) (O14980 whole entry): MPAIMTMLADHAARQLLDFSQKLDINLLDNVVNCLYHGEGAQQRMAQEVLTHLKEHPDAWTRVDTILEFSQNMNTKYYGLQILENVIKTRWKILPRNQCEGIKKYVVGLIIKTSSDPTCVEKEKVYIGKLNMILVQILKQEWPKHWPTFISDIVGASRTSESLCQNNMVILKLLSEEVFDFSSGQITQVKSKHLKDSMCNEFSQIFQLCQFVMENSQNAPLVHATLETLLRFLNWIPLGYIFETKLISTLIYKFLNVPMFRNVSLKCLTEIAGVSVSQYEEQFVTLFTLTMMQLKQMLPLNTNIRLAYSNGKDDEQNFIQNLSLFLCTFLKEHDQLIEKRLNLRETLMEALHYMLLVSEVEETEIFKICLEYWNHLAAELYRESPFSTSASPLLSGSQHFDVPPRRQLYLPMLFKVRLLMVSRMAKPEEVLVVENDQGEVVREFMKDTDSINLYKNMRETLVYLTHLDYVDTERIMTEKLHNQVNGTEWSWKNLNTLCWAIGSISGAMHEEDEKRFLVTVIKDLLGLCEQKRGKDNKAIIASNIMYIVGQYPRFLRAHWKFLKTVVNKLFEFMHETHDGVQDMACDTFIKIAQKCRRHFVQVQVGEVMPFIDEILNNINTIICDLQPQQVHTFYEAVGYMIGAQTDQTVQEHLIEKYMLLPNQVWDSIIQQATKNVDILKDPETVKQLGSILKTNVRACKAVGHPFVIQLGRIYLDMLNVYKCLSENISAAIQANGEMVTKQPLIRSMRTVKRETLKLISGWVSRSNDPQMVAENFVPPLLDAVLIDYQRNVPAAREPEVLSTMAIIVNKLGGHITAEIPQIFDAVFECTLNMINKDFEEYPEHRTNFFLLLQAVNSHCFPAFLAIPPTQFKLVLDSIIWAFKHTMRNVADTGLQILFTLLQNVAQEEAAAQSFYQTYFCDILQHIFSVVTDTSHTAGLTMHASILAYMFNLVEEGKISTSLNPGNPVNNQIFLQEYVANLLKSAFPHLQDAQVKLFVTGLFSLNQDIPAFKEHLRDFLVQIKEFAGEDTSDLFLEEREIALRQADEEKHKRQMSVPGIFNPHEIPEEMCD
Assay [4] shares this target. Briefly: Inhibition of CRM1 in human HuH7 cells assessed as accumulation of RIOK2 in nucleus at 0.1 to 10 uM measured after 6 hrs by DAPI staining based confocal microscopy analysis. In kind it is cell-based.
Assay [5] concerns HepG2. Kind of assay: Induction of apoptosis in human 3D HepG2 spheroids at 10 uM measured after 24 hrs by propidium iodide staining based immunofluorescence microscopy analysis. In kind it is functional, cell-based.
Assay [6] relates to Huh-7. Kind of assay: Cytotoxicity against human HuH7 cells assessed as reduction in cell viability measured after 72 hrs by MTT assay. In kind it is functional, cell-based. The note with it: Huh-7, 72 h.
Assay [7] has as its system HepG2. Kind of assay: Cytotoxicity against human HepG2 cells assessed as reduction in cell viability measured after 48 hrs by MTT assay. In kind it is functional, cell-based. To be noted: HepG2, 48 h.
Assay [8] concerns the target T1, NAD-dependent protein deacetylase sirtuin-1 (Homo sapiens) (UniProt Q96EB6).
T1 sequence (whole entry): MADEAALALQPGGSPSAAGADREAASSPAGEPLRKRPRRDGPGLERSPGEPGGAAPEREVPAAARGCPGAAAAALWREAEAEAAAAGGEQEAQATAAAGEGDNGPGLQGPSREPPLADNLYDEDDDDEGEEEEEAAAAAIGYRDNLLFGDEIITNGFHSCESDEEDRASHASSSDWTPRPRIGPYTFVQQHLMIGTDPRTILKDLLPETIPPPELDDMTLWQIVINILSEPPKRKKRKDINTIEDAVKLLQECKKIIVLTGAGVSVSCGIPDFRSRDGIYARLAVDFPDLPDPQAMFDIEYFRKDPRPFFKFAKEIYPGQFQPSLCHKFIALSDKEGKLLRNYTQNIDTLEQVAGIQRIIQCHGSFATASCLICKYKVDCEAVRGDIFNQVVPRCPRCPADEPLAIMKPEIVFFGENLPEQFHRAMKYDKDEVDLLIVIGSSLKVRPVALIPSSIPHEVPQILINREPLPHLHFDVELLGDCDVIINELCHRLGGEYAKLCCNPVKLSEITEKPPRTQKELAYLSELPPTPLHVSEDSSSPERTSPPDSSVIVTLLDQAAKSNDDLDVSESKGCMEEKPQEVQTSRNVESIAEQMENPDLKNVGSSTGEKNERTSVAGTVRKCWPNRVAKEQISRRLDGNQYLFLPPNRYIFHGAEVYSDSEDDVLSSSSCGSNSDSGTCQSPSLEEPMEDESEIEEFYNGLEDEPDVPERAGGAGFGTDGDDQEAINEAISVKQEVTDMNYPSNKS
Kind of assay: Inhibition of human recombinant SIRT1 at 10 uM using FLUOR DE LYS SIRT1, deacetylase as substrate preincubated for 2 mins followed by substrate addition measured after 1 hr in presence of NAD+ by fluorescence assay relative to control.

Assay [9] concerns HepG2. Kind of assay: Cytotoxicity against human HepG2 cells assessed as reduction in cell viability measured after 72 hrs by MTT assay. The assay is classed as functional, cell-based. To be noted: HepG2, 72 h.
Assay [10] has as its target T1, NAD-dependent protein deacetylase sirtuin-1 (Homo sapiens). Kind of assay: Inhibition of human recombinant SIRT1 at 100 uM using FLUOR DE LYS SIRT1, deacetylase as substrate preincubated for 2 mins followed by substrate addition measured after 1 hr in presence of NAD+ by fluorescence assay relative to control.
For assay [11], the system named is Huh-7. Briefly: Cytotoxicity against human HuH7 cells assessed as reduction in cell viability measured after 24 hrs by MTT assay. The assay is classed as functional, cell-based. To be noted: Huh-7, 24 h.
The subject of assay [12] is Hep 3B2. Briefly: Cytotoxicity against human Hep3B cells assessed as growth inhibition. In kind it is functional, cell-based.
Assay [13] relates to HepG2. Kind of assay: Induction of apoptosis in human 3D HepG2 spheroids measured after 24 hrs by propidium iodide staining based immunofluorescence microscopy analysis. In kind it is functional, cell-based.
The subject of assay [14] is HepG2. Briefly: Cytotoxicity against human HepG2 cells assessed as reduction in cell viability after 48 to 72 hrs. The assay is classed as functional, cell-based.

Calls of active or inactive are those of the source. No cut-off for these calls is given here.

For orientation: IC50 means the concentration needed to halve the response being measured. The inhibition is the relative decrease from the control value, in per cent. Take `O=C1C=CCC(c2cc3c(c4ccccc24)CCCC3)O1` (racemic): the IC50 in assay [1] is 2500 nM; in [2] it was 5 µM; in assay [6], 1250 nM; in assay [7], 625 nM; in assay [9], 100 nM; in [11], 5 µM. Also, the inhibition entry in [3] and in assay [4] was “Active” each time. In assay [5], the outcome was Active. In addition, the inhibition in assay [8] is 17%; in [10], 65%.

Turning to `O=C1C=CC[C@H](/C=C/c2ccccc2)O1` [GONIOTHALAMIN], the IC50 in assay [12] is 5.4 µM; in assay [14], 625 to 2500 nM. In assay [13], the result was Active.

The values are drawn from ChEMBL document CHEMBL4359853, “Antiproliferative activity of (R)-4'-methylklavuzon on hepatocellular carcinoma cells and EpCAM+/CD133+ cancer stem cells via SIRT1 and Exportin-1 (CRM1) inhibition” (Eur J Med Chem, 2019).
